Assay results as given in the NIST ThermoML archive (doi:10.1021/je800300x).
Numbers after ± are expanded uncertainties.

Legend:
[1] = Molar enthalpy of transition or fusion; settings: Crystal; DSC
[2] = Crystal; DTA

Molar enthalpy of transition or fusion [1]: 5.4 ± 0.359 kcal/mol | Normal melting temperature [2]: 112.2 ± 1.1 °C
Structure (SMILES): c1ccc2c(c1)-c1ccccc1-2 [biphenylene]
